Converted amounts (≈) assume the structure as drawn. Where two headings read alike, the source gives them in different places.
Experiments:
[1] = Solubility in distilled water
Experimental: The remaining salts (3e-h) were prepared directly from the free acid 10b by treatment with the appropriate base or amino acid. The solubilities of each salt and of precursor 9 were measured in distilled water at room temperature.

[2] = system: murine P388 lymphocytic leukemia cell line; assay: Murine P388 lymphocytic leukemia cell line growth inhibition; type: cell-based; details: for Activity against P388 (in words): murine P388 lymphocytic leukemia cell line
[3] = Storage stability of the free phosphoric acid; type: physicochemical; details: storable for short periods as methanolic solution (<0.01 M at 4° C.)
Source text: The most soluble were the sodium (3b) and potassium (3c) salts (Table 2).

lung (NCI-H460) = assay: Human cancer cell line minipanel: NCI-H460; type: cell-based; details: for GI50: read-out: GI50 NCI-H460 (nanomolar value in parentheses)
breast (MCF-7) = assay: Human cancer cell line minipanel: MCF-7; type: cell-based; details: for GI50: read-out: GI50 MCF-7 (nanomolar value in parentheses)
CNS (SF-268) = assay: Human cancer cell line minipanel: SF-268; type: cell-based; details: for GI50: read-out: GI50 SF-268 (nanomolar value in parentheses)
pancreas (BXPC-3) = assay: Human cancer cell line minipanel: BXPC-3; type: cell-based; details: for GI50: read-out: GI50 BXPC-3 (nanomolar value in parentheses)
colon (KM20L2) = assay: Human cancer cell line minipanel: KM20L2; type: cell-based; details: for GI50: read-out: GI50 KM20L2 (nanomolar value in parentheses)
prostate (DU-145) = assay: Human cancer cell line minipanel: DU-145; type: cell-based; details: for GI50: read-out: GI50 DU-145 (nanomolar value in parentheses)
[4] = system: minipanel of human cancer cell lines; assay: Minipanel of human cancer cell lines (summary); type: cell-based; details: for GI50 (order of magnitude over the cell lines): summary of cancer cell growth inhibition
[5] = murine lymphocytic leukemia (P388)
[6] = murine lymphocytic leukemia (P388), read-out: ED50 P388 (nanomolar value in parentheses)

| Molecule | Solubility ([1]; in distilled water at 23° C.) [mg/mL] | Activity against P388 (in words) [2] | ED50 P388 [2, 5] [ng/mL] | EC50 [2, 6] [nM] | GI50 NCI-H460 (lung (NCI-H460)) [ng/mL] | GI50 (lung (NCI-H460)) [nM] | GI50 MCF-7 (breast (MCF-7)) [ng/mL] | GI50 (breast (MCF-7)) [nM] | GI50 SF-268 (CNS (SF-268)) [ng/mL] | GI50 (CNS (SF-268)) [nM] | GI50 BXPC-3 (pancreas (BXPC-3)) [ng/mL] | GI50 (pancreas (BXPC-3)) [nM] | GI50 KM20L2 (colon (KM20L2)) [ng/mL] | GI50 (colon (KM20L2)) [nM] | GI50 DU-145 (prostate (DU-145)) [ng/mL] | GI50 (prostate (DU-145)) [nM] | Activity against minipanel of human cancer cell lines (in words) [4] | GI50 (order of magnitude over the cell lines) [4] | further results |
| --- | --- | --- | --- | --- | --- | --- | --- | --- | --- | --- | --- | --- | --- | --- | --- | --- | --- | --- | --- |
| C1COCCN1.CC[C@H](C)[C@@H]([C@@H](CC(=O)N1CCC[C@H]1[C@H](OC)[C@@H](C)C(=O)NCCc1ccc(OP(=O)(O)O)cc1)OC)N(C)C(=O)[C@@H](NC(=O)[C@H](C(C)C)N(C)C)C(C)C [Compound 3d, Morpholine Auristatin TP] | >72 | – | – | – | – | – | – | – | – | – | – | – | – | – | – | – | – | – | – |
| CC[C@H](C)[C@@H]([C@@H](CC(=O)N1CCC[C@H]1[C@H](OC)[C@@H](C)C(=O)NCCc1ccc(OP(=O)([O-])[O-])cc1)OC)N(C)C(=O)[C@@H](NC(=O)[C@H](C(C)C)N(C)C)C(C)C.[K+].[K+] [Compound 3c, Potassium Auristatin TP] | >120 | exceptional activity | 7.6 | 8.7 | – | – | – | – | – | – | – | – | – | – | – | – | – | – | – |
| CCC(C)C(C(CC(=O)N1CCCC1C(OC)C(C)C(=O)NCCc1ccc(OP(=O)(O)O)cc1)OC)N(C)C(=O)C(NC(=O)C(C(C)C)N(C)C)C(C)C (stereo not drawn) [Compound 10b, Dov-Val-Dil-Dap-4-(dihydrophosphoryloxy)phenethylamide] | – | – | – | – | – | – | – | – | – | – | – | – | – | – | – | – | – | – | Stability of the pure substance (in words) [3]: quite unstable |
| Dov-Val-Dil-Dap-2-aminoquinoline [Compound 4] | – | exceptional activity | 31 | 42.8 | 16 | 22.1 | 4.6 | 6.35 | 29 | 40.1 | 29 | 40.1 | 7.7 | 10.6 | 23 | 31.8 | similarly strong activity | 10^−2-10^−3 μg/mL | – |
| CC[C@H](C)[C@@H]([C@@H](CC(=O)N1CCC[C@H]1[C@H](OC)[C@@H](C)C(=O)NCCc1ccc(OP(=O)(O)O)cc1)OC)N(C)C(=O)[C@@H](NC(=O)[C@H](C(C)C)N(C)C)C(C)C.NC(CO)(CO)CO [Compound 3f, TRIS Auristatin TP] | >51 | – | – | – | – | – | – | – | – | – | – | – | – | – | – | – | – | – | – |
| CC[C@H](C)[C@@H]([C@@H](CC(=O)N1CCC[C@H]1[C@H](OC)[C@@H](C)C(=O)Nc1ccc2ncccc2c1)OC)N(C)C(=O)[C@@H](NC(=O)[C@H](C(C)C)N(C)C)C(C)C [Compound 5, Dov-Val-Dil-Dap-6-aminoquinoline] | – | exceptional activity | 2.6 (≈ 0.00359 µM) | 3.59 | 0.36 (≈ 0.000497 µM) | 0.5 | 0.14 (≈ 0.000193 µM) | 0.19 | 0.16 (≈ 0.000221 µM) | 0.22 | 0.31 (≈ 0.000428 µM) | 0.43 | 0.25 (≈ 0.000345 µM) | 0.35 | 0.3 (≈ 0.000414 µM) | 0.41 | similarly strong activity | 10^−4 μg/mL | – |
| CC[C@H](C)[C@@H]([C@@H](CC(=O)N1CCC[C@H]1[C@H](OC)[C@@H](C)C(=O)NCCc1ccc(OP(=O)([O-])[O-])cc1)OC)N(C)C(=O)[C@@H](NC(=O)[C@H](C(C)C)N(C)C)C(C)C.[Li+].[Li+] [Compound 3a, Lithium Auristatin TP] | >65 | – | – | – | – | – | – | – | – | – | – | – | – | – | – | – | – | – | – |
| Sodium Auristatin TP [Compound 3b] | >236 | exceptional activity | <1 | < 1.2 | 0.88 | 1.05 | 0.68 | 0.81 | 1.25 | 1.48 | 46 | 54.6 | 0.61 | 0.72 | 0.54 | 0.64 | similarly strong activity | 10^−2-10^−4 μg/mL | – |
| CC[C@H](C)[C@@H]([C@@H](CC(=O)N1CCC[C@H]1[C@H](OC)[C@@H](C)C(=O)NCCc1ccc(O)cc1)OC)N(C)C(=O)[C@@H](NC(=O)[C@H](C(C)C)N(C)C)C(C)C [Compound 9, Dov-Val-Dil-Dap-4-hydroxyphenethylamide] | – | exceptional activity | 3.6 (≈ 0.00501 µM) | – | – | – | – | – | – | – | – | – | – | – | – | – | – | – | EC50 ([2]; Mus musculus, P388, read-out: ED50 P388 (nanomolar value in parentheses)): 5 nM; Solubility [1]: <1 mg/mL |

Source: patent US9539342B2, “Auristatin tyramine phosphate salts and auristatin aminoquinoline derivatives and prodrugs thereof” (ARIZONA BOARD OF REGENTS, A BODY CORPORATE OF THE STATE OF …, priority 2011, dated 2017)
